“And” between values parts separate entries of the source, which are not always exact repeats. Identical values can stand only once.
Key:
Format in all cases: cell-based
Escherichia coli = assay: MIC and synergy of MIT and BIT in Müller-Hinton broth, 72 h; conditions: for growth of the microorganism: BIT 0 ppm, MIT ppm = row head c0; as to growth of the microorganism: key: growth of the microorganism took place (symbol '+'); or not (symbol '−')
Method: For this purpose, aqueous mixtures were produced with various concentrations of 2-methylisothiazolin-3-one (MIT) and 1,2-benzisothiazolin-3-one (BIT) and the activity of these mixtures on Escherichia coli (International Mycological Institute, Strain No. IMI 362054) was tested.
In addition to the biocide component and water, the aqueous mixtures contained a nutrient medium, namely a Müller-Hinton broth (commercial product “Merck No. 10393”). The cell density of Escherichia coli was 10^6 cells/mL. The incubation time was 72 h at 25° C. Each sample was incubated on an incubation shaker at 120 rpm.
(§1) The synergy index is calculated according to the method of F. C. Kull et al., Applied Microbiology, Vol. 9 (1961), p. 538. Here the synergy index is calculated using the following formula:
(§2) Synergy index SI=Qa/QA+Qb/QB.
When the synergy index has the value 1, this means that there is an addition of the activity of the two biocides. When the synergy index has a value of less than 1, this means that a synergy of the two biocides exists.

Pseudomonas putida = assay: MIC and synergy of MIT and BIT in Müller-Hinton broth, 48 h; as to growth of the microorganism: key: growth of the microorganism took place (symbol '+'); or not (symbol '−')
Method: as §1, §2
The synergy of the two active substances MIT and BIT against the microorganism Pseudomonas putida is shown as in Example 1.
(§3) The test batches again contained a Müller-Hinton broth as a nutrient medium. The cell density was 10^6 cells/mL. The incubation time was 48 h at 25° C. Each sample was incubated on an incubation shaker at 120 rpm.

Aspergillus niger [1] = assay: MIC and synergy of MIT and BIT in Sabouraud maltose broth, 96 h
Method: as §1, §2
The synergy of the two active substances MIT and BIT against the microorganism Aspergillus niger is shown as in Example 1.
(§4) The test batches contained a Sabouraud maltose broth as a nutrient medium. The spore concentration was 10^6 per mL. The incubation time was 96 h at 25° C. Each sample was incubated on an incubation shaker at 120 rpm.

Klebsiella pneumoniae = assay: MIC and synergy of MIT and BIT in Müller-Hinton broth, 72 h; conditions: for growth of the microorganism: BIT 0 ppm, MIT ppm = row head c0; as to growth of the microorganism: key: growth of the microorganism took place (symbol '+'); or not (symbol '−')
Method: as §1, §2
The synergy of the two active substances MIT and BIT against the microorganism Klebsiella pneumoniae is shown as in example 1.
(§5) The test batches again contained a Müller-Hinton broth as a nutrient medium. The cell density was 10^6 cells/mL. The incubation time was 72 h at 25° C. Each sample was incubated on an incubation shaker at 120 rpm.

Penicillium funiculosum [2] = assay: MIC and synergy of MIT and BIT in Sabouraud maltose broth, 96 h
Method: as §1, §2
The synergy of the two active substances MIT and BIT against the microorganism Penicillium funiculosum is shown as in Example 1.
as §4

Pseudomonas stutzeri = assay: MIC and synergy of MIT and BIT in Müller-Hinton broth, 72 h; conditions: for growth of the microorganism: BIT 0 ppm, MIT ppm = row head c0; as to growth of the microorganism: key: growth of the microorganism took place (symbol '+'); or not (symbol '−')
Method: as §1, §2
The synergy of MIT and BIT against the microorganism Pseudomonas stutzeri is shown as in Example 1.
as §5

Pseudomonas aeruginosa = assay: MIC and synergy of MIT and BIT in Müller-Hinton broth, 48 h
Method: as §1, §2
The synergy of the two active substances MIT and BIT against the microorganism Pseudomonas aeruginosa is shown as in Example 1.
as §3

[3] = test system: standard bacterial inoculum; assay: Preservation of coating composition B, repeated bacterial inoculation, streak evaluation; parameters: key to Bacterial growth (7 days + 48 h after 4th inoculation): 0: no growth; minimal growth up to 10 colonies; 2: slight growth up to 100 colonies; moderate growth up to 300 colonies; 4: uniform growth, single colonies still discernible; 5: strong growth, too many colonies to count, but not covering entire surface; 6: extensive growth, almost no individual colonies, total streak surface overgrown
Method: (§6) The biocides shown in Table XI below were added respectively to 50 g of coating composition A. The stated amounts of biocide refer to the amount of coating composition A. In the MIT/BIT mixtures, the two biocides were present in a weight ratio of 1:1.
(§7) Apart from a blank test without addition of biocide, 1 mL of a standard bacterial inoculum that contained the following bacterial strains was added to each sample of coating composition A:
(§8) The cell density of the inoculum was 10^10 to 3·10^10 cells/mL, and the cell density of the samples was 2·10^8 to 6·10^8 cells/g. The samples were held at 30° C. for 7 days. Then a streak of each sample was produced on a nutrient agar plate, held at 30° C. for 48 h, and then evaluated for bacterial growth. The following evaluation scale was used:
(§9) When the bacterial growth was evaluated as below 6, a second bacterial inoculum of the above-mentioned type was added to the corresponding original 50 g sample and it was again held at 30° C. for 7 days. Then a streak was again produced on a nutrient agar plate, which was again evaluated for its bacterial growth after a holding time of 48 h at 30° C.
(§10) When the bacterial growth of the streak was evaluated as 6 for a sample, the testing of this sample was terminated. As long as a sample had not reached this number, a bacterial inoculum was again added in the above-mentioned manner and the sample was held and tested by means of a streak. This procedure was repeated as necessary, with a maximum of 4 bacterial inocula being added per sample.
Example 9 was repeated, but using coating composition B instead of coating composition A.
Coating composition B is a particularly low-emission plaster based on a polymer dispersion commercially available under the designation “Granol KR 3.0 LF” (company Steinwerke Kupferdreh GmbH).

[4] = test system: standard bacterial inoculum; assay: Preservation of coating composition A, repeated bacterial inoculation, streak evaluation; parameters: key: 0: no growth; minimal growth up to 10 colonies; 2: slight growth up to 100 colonies; moderate growth up to 300 colonies; 4: uniform growth, single colonies still discernible; 5: strong growth, too many colonies to count, but not covering entire surface; 6: extensive growth, almost no individual colonies, total streak surface overgrown
Source text: Biocide compositions according to the invention were incorporated into a coating composition A that is used for coating building facades. This coating composition is a plaster based on an aqueous polymer dispersion commercially available under the designation “Granol KR 3.0” (company Steinwerke Kupferdreh GmbH). The addition of the biocide composition of the invention served to preserve the coating composition before its use, i.e., while it was stored in its packing drums.
as §6, §7, §8, §9, §10

Aspergillus niger [5] = assay: MIC and synergy of MIT/BIT (1:1) and IPBC in Sabouraud maltose broth, 72 h
Method: (§11) In all the examples in which an active substance mixture of MIT and BIT as well as additionally a further active biocidal substance was used, the weight ratio of MIT to BIT was 1:1.
as §1, §2
The synergy of an active substance mixture that contains 3-iodo-2-propinyl-N-butyl carbamate (IPBC) in addition to MIT and BIT, against the microorganism Aspergillus niger is shown as in Example 1.
(§12) The test batches contained a Sabouraud maltose broth as a nutrient medium. The spore concentration was 10^6 per mL. The incubation time was 72 h at 25° C. Each sample was incubated on an incubation shaker at 120 rpm.

Penicillium funiculosum [6] = assay: as above
Method: as §11, §1, §2
The synergy of an active substance mixture that contains IPBC in addition to MIT and BIT, against the microorganism Penicillium funiculosum is shown as in Example 1.
as §12

[7] = MIT share of the BIT/MIT mixture at MIC, 72 h
[8] = MIT share of the BIT/MIT mixture at MIC, 48 h
[9] = share of the BIT/MIT mixture at MIC, 96 h

`Cn1sccc1=O` [MIT, 2-methylisothiazolin-3-one] was tested, and the “MIC at Total concentration BIT + MIT Qa + Qb” value (Escherichia coli; 72 h) was 17.5 ppm, the Qb/QB (Escherichia coli; 72 h) was 1.00 and the “Synergy index Qa/QA + Qb/QB” value (Escherichia coli; 72 h, method of Kull) was 1.00. For the same compound, the “growth of the microorganism” value (Escherichia coli; 72 h, MIT 10 ppm) was “+”, the “growth of the microorganism” value (Escherichia coli; 72 h, MIT 25 ppm) was “−” and the “MIC at MIT concentration Qb” value (Escherichia coli; [7]) was 17.5 ppm. The MIC value (Escherichia coli; used alone, 72 h at 25° C.) was 17.5 ppm, the “MIC at Total concentration BIT + MIT Qa + Qb” value (Pseudomonas putida; 48 h) was 12.5 ppm and the Qb/QB (Pseudomonas putida; 48 h) was 1.00. The “Synergy index Qa/QA + Qb/QB” value (Pseudomonas putida; 48 h) was 1.00, the “growth of the microorganism” value (Pseudomonas putida; BIT 0 ppm, MIT ppm = row head c0, 48 h) was “+ and −” and the “MIC at MIT concentration Qb” value (Pseudomonas putida; [8]) was 12.5 ppm. For the same compound, the MIC value (Pseudomonas putida; used alone, 48 h at 25° C.) was 12.5 ppm, the “MIC at Total concentration BIT + MIT Qa + Qb” value (Aspergillus niger [1]; 96 h) was 100 ppm and the Qb/QB (Aspergillus niger [1]; 96 h) was 1.00. For the same compound, the “Synergy index Qa/QA + Qb/QB” value (Aspergillus niger [1]; 96 h) was 1.00, the “MIC at MIT concentration Qb” value (Aspergillus niger [1]; [9]) was 100 ppm and the MIC value (Aspergillus niger [1]; used alone, 96 h at 25° C.) was 750 ppm. For the same compound, the “MIC at Total concentration BIT + MIT Qa + Qb” value (Klebsiella pneumoniae; 72 h) was 20 ppm, the Qb/QB (Klebsiella pneumoniae; 72 h) was 1.00 and the “Synergy index Qa/QA + Qb/QB” value (Klebsiella pneumoniae; 72 h) was 1.00. For the same compound, the “growth of the microorganism” value (Klebsiella pneumoniae; 72 h, MIT 12.5 ppm) was “+”, the “growth of the microorganism” value (Klebsiella pneumoniae; 72 h, MIT 25 ppm) was “−” and the “MIC at MIT concentration Qb” value (Klebsiella pneumoniae; [7]) was 20 ppm. The MIC value (Klebsiella pneumoniae; used alone, 72 h at 25° C.) was 20 ppm, the “MIC at Total concentration BIT + MIT Qa + Qb” value (Penicillium funiculosum [2]; 96 h) was 40 ppm and the Qb/QB (Penicillium funiculosum [2]; 96 h) was 1.00. The “Synergy index Qa/QA + Qb/QB” value (Penicillium funiculosum [2]; 96 h) was 1.00, the “MIC at MIT concentration Qb” value (Penicillium funiculosum [2]; [9]) was 40 ppm and the MIC value (Penicillium funiculosum [2]; used alone, 96 h at 25° C.) was 200 ppm. The “MIC at Total concentration BIT + MIT Qa + Qb” value (Pseudomonas stutzeri; 72 h) was 12.5 ppm, the Qb/QB (Pseudomonas stutzeri; 72 h) was 1.00 and the “Synergy index Qa/QA + Qb/QB” value (Pseudomonas stutzeri; 72 h) was 1.00. The “growth of the microorganism” value (Pseudomonas stutzeri; 72 h, MIT 10 ppm) was “+”, the “growth of the microorganism” value (Pseudomonas stutzeri; 72 h, MIT 15 ppm) was “−” and the “MIC at MIT concentration Qb” value (Pseudomonas stutzeri; [7]) was 12.5 ppm. For the same compound, the MIC value (Pseudomonas stutzeri; used alone, 72 h at 25° C.) was 12.5 ppm, the “MIC at Total concentration BIT + MIT Qa + Qb” value (Pseudomonas aeruginosa; 48 h) was 30 ppm and the Qb/QB (Pseudomonas aeruginosa; 48 h) was 1.00. The “Synergy index Qa/QA + Qb/QB” value (Pseudomonas aeruginosa; 48 h) was 1.00, the “MIC at MIT concentration Qb” value (Pseudomonas aeruginosa; [8]) was 30 ppm and the MIC value (Pseudomonas aeruginosa; used alone, 48 h at 25° C.) was 30 ppm. For the same compound, the “Bacterial growth (7 days + 48 h after 4th inoculation)” value (shortened to “Bacterial growth”) ([3]; biocide 0.005% by wt) was 4, the “Bacterial growth” value ([3]; biocide 0.01% by wt) was 1 (minimal growth up to 10 colonies) and the “Bacterial growth” value ([3]; biocide 0.015% by wt) was 1 (minimal growth up to 10 colonies). The “Bacterial growth” value ([3]; biocide 0.02% by wt) was “prevented completely and 0”, the “Bacterial growth” value ([3]; biocide 0.03% by wt) was “prevented completely and 0” and the “Bacterial growth” value ([4]; biocide 0.005% by wt) was “full bacterial growth was reached only after four inoculations and 6”. For the same compound, the “Bacterial growth” value ([4]; biocide 0.01% by wt) was 5, the “Bacterial growth” value ([4]; biocide 0.015% by wt) was 5 and the “Bacterial growth” value ([4]; biocide 0.02% by wt) was 4. For the same compound, the “Bacterial growth” value ([4]; biocide 0.03% by wt) was “no bacterial growth found even after four inoculations and 0”.

With `CCCCNC(=O)OCC#CI` [IPBC, 3-iodo-2-propinyl-N-butyl carbamate] the Qb/QB (Aspergillus niger [5]; Aspergillus niger, 72 h) was 1.00, the “Synergy index Qa/QA + Qb/QB” value (Aspergillus niger [5]; Aspergillus niger, 72 h) was 1.00 and the “MIC at IPBC concentration Qb” value (Aspergillus niger [5]; IPBC share at the MIC, Aspergillus niger, 72 h) was 2.5 ppm. The “Total concentration BIT/MIT + IPBC Qa + Qb” value (Aspergillus niger [5]; at the MIC, Aspergillus niger, 72 h) was 2.5 ppm, the MIC value (Aspergillus niger [5]; used alone, 72 h at 25° C.) was 2.5 ppm and the “MIC at IPBC concentration Qb” value (Penicillium funiculosum [6]; IPBC share at the MIC, Penicillium funiculosum, 72 h) was 0.75 ppm. The Qb/QB (Penicillium funiculosum [6]; Penicillium funiculosum, 72 h) was 1.00, the “Synergy index Qa/QA + Qb/QB” value (Penicillium funiculosum [6]; Penicillium funiculosum, 72 h) was 1.00 and the “Total concentration MIT/BIT + IPBC” value (Penicillium funiculosum [6]; at the MIC, Penicillium funiculosum, 72 h) was 0.75 ppm. It also gave an MIC value (Penicillium funiculosum [6]; used alone, 72 h at 25° C.) of 0.75 ppm.

Source: patent US6361788B1, “Synergistic biocide composition” (Thor Chemie GmbH, priority 1997, dated 2002)
